Where two headings read alike, the source gives them in different places. *1 amine or outer side, *2 acyl side, *3 side chain or, on linkers, in order; H or OH if unused. Where a SMILES comes first, the peptide text is derived from it. Bridges are numbered along the chain shown (N, C = ends). [ ]: non-standard residue; d: D form. The star is where a group is joined. X22 = O=C([C@H](Cc1ccc(C(F)(F)F)cc1)N(CC1CCCC1)[*:1])[*:2]; hPhe(3-Cl-4-CF3) = N[C@@H](CCc1ccc(C(F)(F)F)c(Cl)c1)C(=O)O; X40 = CC(C)CN([C@@H](Cc1ccc(C(F)(F)F)cc1)C(=O)[*:2])[*:1]; X32 = COCCN([C@@H](Cc1ccc(C(F)(F)F)cc1)C(=O)[*:2])[*:1]; NPrPhe(4-CF3) = CCCN[C@@H](Cc1ccc(C(F)(F)F)cc1)C(=O)O; X15 = Cc1ccc(C[C@@H](C(=O)[*:2])N(CCC(C)C)[*:1])cc1; X3 = CCCN([C@H](C(=O)[*:2])C1CCCC1)[*:1]; NMeGly(cPent) = CN[C@H](C(=O)O)C1CCCC1; Gly(N-propargyl) = C#CCNCC(=O)O; NMeD = CN[C@@H](CC(=O)O)C(=O)O; NMeL = CN[C@@H](CC(C)C)C(=O)O; Morpholide = C1CN(*)CCO1; NMeA = CN[C@@H](C)C(=O)O; Ac5c = NC1(C(=O)O)CCCC1; Aze = O=C(O)[C@@H]1CCN1; Sar = CNCC(=O)O
Tests used:
[1] = biological target: GDP-bound KRAS wild-type protein (Homo sapiens, UniProt P01116); assay: Binding to KRAS by surface plasmon resonance (SPR), Single Cycle Kinetics; settings: GDP-bound KRAS wild-type protein, read-out: KRAS KD
[2] = biological target: GDP-bound NRAS wild-type protein (Homo sapiens, UniProt P01111); assay: Binding to NRAS by surface plasmon resonance (SPR), Single Cycle Kinetics
[3] = biological target: GDP-bound HRAS wild-type protein (Homo sapiens, UniProt P01112); assay: Binding to HRAS by surface plasmon resonance (SPR), Single Cycle Kinetics
[4] = SPR, Single Cycle Kinetics, 1:1 binding model
[5] = SPR, GDP-bound NRAS wild-type protein vs GDP-bound KRAS wild-type protein, KD ratio class
[6] = SPR, GDP-bound HRAS wild-type protein vs GDP-bound KRAS wild-type protein, KD ratio class
[7] = SPR Single Cycle Kinetics, 1:1 binding model
[8] = SPR, GDP-bound NRAS wild-type protein vs GDP-bound KRAS wild-type protein
[9] = SPR, GDP-bound HRAS wild-type protein vs GDP-bound KRAS wild-type protein

Sequence of GDP-bound KRAS wild-type protein (P01116 whole entry): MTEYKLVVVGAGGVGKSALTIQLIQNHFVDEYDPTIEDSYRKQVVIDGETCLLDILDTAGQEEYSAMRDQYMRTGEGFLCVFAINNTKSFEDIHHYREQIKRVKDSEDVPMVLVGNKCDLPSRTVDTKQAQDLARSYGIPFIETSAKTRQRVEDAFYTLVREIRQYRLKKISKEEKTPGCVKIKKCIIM
Sequence of GDP-bound NRAS wild-type protein (P01111 whole entry): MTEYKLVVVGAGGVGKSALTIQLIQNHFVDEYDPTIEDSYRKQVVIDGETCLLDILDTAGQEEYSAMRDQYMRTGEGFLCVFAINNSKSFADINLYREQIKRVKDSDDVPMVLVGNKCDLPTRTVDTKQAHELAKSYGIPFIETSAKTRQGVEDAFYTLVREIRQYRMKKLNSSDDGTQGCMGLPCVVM
Sequence of GDP-bound HRAS wild-type protein (P01112 whole entry): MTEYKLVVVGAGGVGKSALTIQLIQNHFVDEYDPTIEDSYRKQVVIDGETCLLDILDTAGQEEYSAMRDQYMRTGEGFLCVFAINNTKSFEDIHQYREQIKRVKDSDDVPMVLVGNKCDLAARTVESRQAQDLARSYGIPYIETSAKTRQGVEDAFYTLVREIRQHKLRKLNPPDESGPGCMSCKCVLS

Structure (SMILES) | Kd [1, 7] [nM] | NRAS/KRAS (ratio of KD value for NRAS to KD value for KRAS) [2, 8] | HRAS/KRAS (ratio of KD value for HRAS to KD value for KRAS) [3, 9] | also measured
CC[C@H](C)[C@@H]1NC(=O)[C@H](CC)N(C)C(=O)C[C@@H](C(=O)N(C)C)N(C)C(=O)[C@H](C2CCCC2)N(C)C(=O)C2(CCCC2)NC(=O)[C@@H]2CCCN2C(=O)[C@H](CCc2cc(F)c(C(F)(F)F)c(F)c2)NC(=O)CN(C)C(=O)[C@H](Cc2ccc(C(F)(F)F)cc2)N2CC(C)[C@@H](C)C[C@@H](C2=O)N(C)C(=O)CN(C)C1=O (stereo partly drawn) [PP1349] | – | – | – | Kd [1, 4]: 0.09 nM; NRAS/KRAS (ratio of KD value for NRAS to KD value for KRAS) [2, 5]: C (A compound having a KD ratio of 0.1 or more and less than 3 is denoted as C); HRAS/KRAS (ratio of KD value for HRAS to KD value for KRAS) [3, 6]: B (a compound having 3 or more and less than 10 is denoted as B)
CCCN1C(=O)CN(C)C(=O)CN(C)C(=O)[C@H]([C@@H](C)CC)NC(=O)[C@H](CC(C)C)N(C)C(=O)C[C@@H](C(=O)N2CCOCC2)N(C)C(=O)[C@H](C2CCCC2)N(C)C(=O)C2(CCCC2)NC(=O)[C@@H]2CCCN2C(=O)[C@H](CCc2ccc(C(F)(F)F)c(Cl)c2)NC(=O)CN(C)C(=O)[C@@H]1C1CCCC1 [PP0061] ([NMeL]I[Sar][Sar][X3][Sar][hPhe(3-Cl-4-CF3)]P[Ac5c][NMeGly(cPent)][NMeD]-Morpholide; lactam N-11) | 3.8 | B (a compound having 3 or more and less than 10 is denoted as B) | C (A compound having a KD ratio of 0.1 or more and less than 3 is denoted as C) | –
CC[C@H](C)[C@@H]1NC(=O)[C@H](CC(C)C)N(C)C(=O)C[C@@H](C(=O)N2CCOCC2)N(C)C(=O)[C@H](C2CCCC2)N(C)C(=O)C2(CCCC2)NC(=O)[C@@H]2CCCN2C(=O)[C@H](CCc2ccc(C(F)(F)F)c(Cl)c2)NC(=O)CN(C)C(=O)[C@H](Cc2ccc(C(F)(F)F)cc2)N(CC2CCCC2)C(=O)[C@@H]2CCN2C(=O)[C@H](C)N(C)C1=O [PP0110] ([NMeL]I[NMeA][Aze][X22][Sar][hPhe(3-Cl-4-CF3)]P[Ac5c][NMeGly(cPent)][NMeD]-Morpholide; lactam N-11) | 4 | C (A compound having a KD ratio of 0.1 or more and less than 3 is denoted as C) | B (a compound having 3 or more and less than 10 is denoted as B) | –
C#CCN1CC(=O)N(C)CC(=O)N(CCC)[C@@H](Cc2ccc(C(F)(F)F)cc2)C(=O)N(C)CC(=O)N[C@@H](CCc2ccc(C(F)(F)F)c(Cl)c2)C(=O)N2CCC[C@H]2C(=O)NC2(CCCC2)C(=O)N(C)[C@@H](C2CCCC2)C(=O)N(C)[C@H](C(=O)N2CCOCC2)CC(=O)N(C)[C@@H](CC(C)C)C(=O)N[C@@H]([C@@H](C)CC)C1=O [PP0750] ([NMeL]I[Gly(N-propargyl)][Sar][NPrPhe(4-CF3)][Sar][hPhe(3-Cl-4-CF3)]P[Ac5c][NMeGly(cPent)][NMeD]-Morpholide; lactam N-11) | 0.37 | – | – | NRAS/KRAS (ratio of KD value with respect to NRAS to KD value with respect to KRAS) [2, 8]: B (a compound having 3 or more and less than 10 is denoted as B); HRAS/KRAS (ratio of KD value with respect to HRAS to KD value with respect to KRAS) [3, 9]: C (A compound having a KD ratio of 0.1 or more and less than 3 is denoted as C)
CCO[C@@H]1C[C@H]2C(=O)NC3(CCC3)C(=O)N(C)[C@@H](C3CCCC3)C(=O)N(C)[C@H](C(=O)N(C)C)CC(=O)N(C)[C@@H](CC(C)C)C(=O)N[C@@H]([C@@H](C)CC)C(=O)N(C)CC(=O)N(C)[C@H]3C/C=C\CCN(C3=O)[C@@H](Cc3ccc(C(F)(F)F)cc3)C(=O)N(C)CC(=O)N[C@@H](CCc3cc(F)c(C(F)(F)F)c(F)c3)C(=O)N2C1 [PP1107, (2S,8S,12R,14S,20S,23S,27S,30S,36S,38Z)-20-cyclopentyl-8-[2-[3,5-difluoro-4-(trifluoromethyl)phenyl]ethyl]-12-ethoxy-27-isobutyl-N,N,4,19,22,26,32,35-octamethyl-30-[(1S)-1-methylpropyl]-3,6,9,15,18,21,25,28,31,34,42-undecaoxo-2-[[4-(trifluoromethyl)phenyl]methyl]spiro[1,4,7,10,16,19,22,26,29,32,35-undecazatricyclo[34.5.1.0^10,14]dotetracont-38-ene-17,1′-cyclobutane]-23-carboxamide] | – | A (a compound having 10 or more and less than 20 is denoted as A) | A (a compound having 10 or more and less than 20 is denoted as A) | Kd ([1]; SPR, Single Cycle Kinetics): 0.038 nM
CCO[C@@H]1C[C@H]2C(=O)NC3(CC(C)(C)C3)C(=O)N(C)[C@@H](C(CC)CC)C(=O)N3CCC[C@@H]3CC(=O)N(C)[C@@H](CC)C(=O)N[C@@H]([C@@H](C)CC)C(=O)N(C)CC(=O)N(C)[C@H]3C/C=C\CCN(C3=O)[C@@H](Cc3ccc(C(F)(F)F)cc3)C(=O)N(C)CC(=O)N[C@@H](CCc3cc(F)c(C(F)(F)F)c(F)c3)C(=O)N2C1 [PP1605] | – | – | – | Kd [1, 4]: 0.79 nM; NRAS/KRAS (ratio of KD value for NRAS to KD value for KRAS) [2, 5]: A (a compound having 10 or more and less than 20 is denoted as A); HRAS/KRAS (ratio of KD value for HRAS to KD value for KRAS) [3, 6]: A (a compound having 10 or more and less than 20 is denoted as A)
CCCN1C(=O)CN(C)C(=O)[C@@H]2CCN2C(=O)[C@H]([C@@H](C)CC)NC(=O)[C@H](CC(C)C)N(C)C(=O)C[C@@H](C(=O)N2CCOCC2)N(C)C(=O)[C@H](C2CCCC2)N(C)C(=O)C2(CCCC2)NC(=O)CN(C)C(=O)[C@H](CCc2ccc(C(F)(F)F)c(Cl)c2)NC(=O)CN(C)C(=O)[C@@H]1Cc1ccc(C(F)(F)F)cc1 [PP0314] ([NMeL]I[Aze][Sar][NPrPhe(4-CF3)][Sar][hPhe(3-Cl-4-CF3)][Sar][Ac5c][NMeGly(cPent)][NMeD]-Morpholide; lactam N-11) | 1.6 | B (a compound having 3 or more and less than 10 is denoted as B) | C (A compound having a KD ratio of 0.1 or more and less than 3 is denoted as C) | –
CCO[C@@H]1C[C@H]2C(=O)NC3(CCC3)C(=O)N(C)[C@@H](C(CC)CC)C(=O)N(C)[C@H](C(=O)N3CCCCC3)CC(=O)N(C)[C@H]3CCC/C=C/c4ccc(cc4)C[C@@H](C(=O)N(C)CC(=O)N[C@@H](CCc4cc(F)c(C(F)(F)F)c(F)c4)C(=O)N2C1)N1CC/C=C\C[C@@H](C1=O)N(C)C(=O)CN(C1CC1)C(=O)[C@H]([C@@H](C)CC)NC3=O [PP2956] | 1.1 | – | – | NRAS/KRAS (ratio of KD value with respect to GDP-bound NRAS wild-type protein to KD value with respect to KRAS) ([2]; SPR KD ratio NRAS/KRAS, class symbols): AA (a compound having 20 or more is denoted as AA); HRAS/KRAS (ratio of KD value with respect to GDP-bound HRAS wild-type protein to KD value with respect to KRAS) ([3]; SPR KD ratio HRAS/KRAS, class symbols): A (a compound having 10 or more and less than 20 is denoted as A)
CCO[C@@H]1C[C@H]2C(=O)NC3(CC(C)(C)C3)C(=O)N(C)[C@@H](C(CC)CC)C(=O)N(C)[C@H](C(=O)N(C)C)CC(=O)N(C)[C@H]3CCCCCc4ccc(cc4)C[C@@H](C(=O)N(C)CC(=O)N[C@@H](CCc4ccc(C(F)(F)F)c(OC)c4)C(=O)N2C1)N1CC/C=C\C[C@@H](C1=O)N(C)C(=O)CN(C)C(=O)[C@H]([C@@H](C)CC)NC3=O [PP3035] | – | AA (a compound having 20 or more is denoted as AA) | A (a compound having 10 or more and less than 20 is denoted as A) | Kd ([1]; SPR, Single Cycle Kinetics): 0.092 nM
CC[C@H](C)[C@@H]1NC(=O)[C@H](CC(C)C)N(C)C(=O)C[C@@H](C(=O)N2CCOCC2)N(C)C(=O)[C@H](C2CCCC2)N(C)C(=O)C2(CCCC2)NC(=O)[C@@H]2CCCN2C(=O)[C@H](CCc2ccc(C(F)(F)F)c(Cl)c2)NC(=O)CN(C)C(=O)[C@H](Cc2ccc(C(F)(F)F)cc2)N(CC(C)C)C(=O)[C@@H]2CCN2C(=O)[C@H](C)N(C)C1=O [PP0107] ([NMeL]I[NMeA][Aze][X40][Sar][hPhe(3-Cl-4-CF3)]P[Ac5c][NMeGly(cPent)][NMeD]-Morpholide; lactam N-11) | 1.7 | C (A compound having a KD ratio of 0.1 or more and less than 3 is denoted as C) | C (A compound having a KD ratio of 0.1 or more and less than 3 is denoted as C) | –
CC[C@H](C)[C@@H]1NC(=O)[C@H](CC(C)C)N(C)C(=O)C[C@@H](C(=O)N2CCOCC2)N(C)C(=O)[C@H](C2CCCC2)N(C)C(=O)C2(CCCC2)NC(=O)[C@@H]2CCCN2C(=O)[C@H](CCc2ccc(C(F)(F)F)c(Cl)c2)NC(=O)CN(C)C(=O)[C@H](Cc2ccc(C(F)(F)F)cc2)N(CCOC)C(=O)[C@@H]2CCN2C(=O)[C@H](C)N(C)C1=O [PP0118] ([NMeL]I[NMeA][Aze][X32][Sar][hPhe(3-Cl-4-CF3)]P[Ac5c][NMeGly(cPent)][NMeD]-Morpholide; lactam N-11) | 0.21 | C (A compound having a KD ratio of 0.1 or more and less than 3 is denoted as C) | C (A compound having a KD ratio of 0.1 or more and less than 3 is denoted as C) | –
CC[C@H](C)[C@@H]1NC(=O)[C@H](CC(C)C)N(C)C(=O)C[C@@H](C(=O)N2CCOCC2)N(C)C(=O)[C@H](C2CCCC2)N(C)C(=O)C2(CCCC2)NC(=O)[C@@H]2CCCN2C(=O)[C@H](CCc2ccc(C(F)(F)F)c(Cl)c2)NC(=O)CN(C)C(=O)[C@H](Cc2ccc(C)cc2)N(CCC(C)C)C(=O)[C@@H]2CCN2C(=O)[C@H](C)N(C)C1=O [PP0086] ([NMeL]I[NMeA][Aze][X15][Sar][hPhe(3-Cl-4-CF3)]P[Ac5c][NMeGly(cPent)][NMeD]-Morpholide; lactam N-11) | 0.26 | C (A compound having a KD ratio of 0.1 or more and less than 3 is denoted as C) | B (a compound having 3 or more and less than 10 is denoted as B) | –

— patent US20240158446A1, “CYCLIC COMPOUND HAVING SELECTIVE INHIBITORY ACTION ON KRAS OVER HRAS AND NRAS” (CHUGAI SEIYAKU KABUSHIKI KAISHA, priority 2021, published 2024)
